According to patent US11129829B2, “Methods for modulating splicing” (Skyhawk Therapeutics, Inc., priority 2019, dated 2021):
Like-named read-outs stand apart in the source and are kept apart here.

Columns and labels:
Format in all cases: cell-based
A-673 = A-673 cell viability
Target 1 = experiment: qPCR assay, Target 1 splicing potency (poison exons 7b and 7c inclusion); settings: for IC50: WT transcript
Description: (§1) A-673 or SK-N-MC cells were treated with different concentrations of SMSM compounds or DMSO for 24 hours. After the first 16 hours, cells were treated with 100 ug/ml of cycloheximide (CHX) for 8 hours to inhibit protein translation and nonsense-mediated decay (NMD). Cells were lysed with RNA lysis buffer and RNAs were purified using standard methods. After cDNA synthesis, samples were analyzed by qPCR using target transcript specific Taqman primers/probes (FIGS. 7, 19, 20, and 29). Absolute copy numbers were determined using standard curves from G-block DNA fragments (FIGS. 8, 9, and 21). Relative gene expression was determined by comparing the gene expression in the presence of an SMSM and DMSO (FIGS. 10-16 and 22-28).

Target 2 = experiment: qPCR assay, Target 2 splicing potency (poison exon 12c inclusion); settings: for IC50: WT transcript; for EC50: poison exon E12c inclusion
Description: as §1

FoxM1 A mRNA = experiment: Splice EC50: FoxM1 A mRNA increase (exon excluded); settings: read-out: Splice EC50 (nM)^B
FoxM1 BC mRNA = experiment: Splice IC50: FoxM1 BC mRNA decrease (exon included); settings: read-out: Splice IC50 (nM)^C
[1] = poison exon E7b inclusion, read-out: Target 1 Splicing Potency E7b EC50
[2] = poison exon E7c inclusion, read-out: Target 1 Splicing Potency E7c EC50
[3] = Homo sapiens, A673, Cell viability

Molecule	IC50 (A-673; Cell viability)	IC50 (Target 1)	EC50 (Target 1; [1])	EC50 (Target 1; [2])	IC50 (Target 2)	EC50 (Target 2)	IC50 (A-673; [3])	EC50 (FoxM1 A mRNA)	IC50 (FoxM1 BC mRNA)
2-(6-(((1R,3S,5S)-1,5-dimethyl-8-azabicyclo[3.2.1]octan-3-yl)(methyl)amino)pyridazin-3-yl)-5-(l-(methyl-d3)-1H-pyrazol-4-yl)phenol [compound 171]	10 to 100 nM	–	–	–	–	–	–	–	–
6-(6-(((1R,3S,5S)-8-azabicyclo[3.2.1]octan-3-yl)(methyl)amino)pyridazin-3-yl)quinolin-7-ol [compound 162]	251 to 500 nM	–	–	–	–	–	–	–	–
CN(c1ccc(-c2cc(F)c(-c3cn[nH]c3)cc2O)nn1)[C@@H]1C[C@H]2CCC[C@@H](C1)N2 [SMSM 70807, 4-fluoro-2-(6-{methyl[(1R,3S,5S)-9-azabicyclo[3.3.1]nonan-3-yl]amino}pyridazin-3-yl)-5-(1H-pyrazol-4-yl)phenol]	–	46 nM	168 nM	162 nM	50.8 nM	540 nM	–	–	–
CNC(=O)/C=C/c1cc(O)c(-c2ccc(N(C)[C@@H]3C[C@H]4CCC[C@@H](C3)N4)nn2)cc1F [SMSM 70808, (2E)-3-{4-[6-({9-azabicyclo[3.3.1]nonan-3-yl}(methyl)amino)pyridazin-3-yl]-2-fluoro-5-hydroxyphenyl}-N-methylprop-2-enamide]	–	104 nM	47.5 nM	348 nM	149 nM	606 nM	–	–	–
CN(c1ccc(-c2ccc(-c3cnn(CF)c3)cc2O)nn1)[C@H]1C[C@]2(C)CC[C@](C)(C1)N2 [SMSM 70810, 2-(6-{[(1R,3S,5S)-1,5-dimethyl-8-azabicyclo[3.2.1]octan-3-yl](methyl)amino}pyridazin-3-yl)-5-[1-(fluoromethyl)-1H-pyrazol-4-yl]phenol]	–	236 nM	180 nM	1050 nM	220 nM	418 nM	–	–	–
COc1cc(-c2ccc(-c3ccc(N(C)[C@H]4C[C@]5(C)CC[C@](C)(C4)N5)nn3)c(O)c2)cnn1 [SMSM 70812, 2-(6-{[(1R,3S,5S)-1,5-dimethyl-8-azabicyclo[3.2.1]octan-3-yl](methyl)amino}pyridazin-3-yl)-5-(6-methoxypyridazin-4-yl)phenol]	–	178 nM	174 nM	754 nM	169 nM	355 nM	–	–	–
CNC(=O)/C=C/c1cc(O)c(-c2ccc(N(C)[C@H]3C[C@]4(C)CCC[C@](C)(C3)N4)nn2)cc1F [SMSM 70813, (2E)-3-[2-fluoro-5-hydroxy-4-(6-{methyl[(1R,3S,5S)-1,5-dimethyl-9-azabicyclo[3.3.1]nonan-3-yl]amino}pyridazin-3-yl)phenyl]-N-methylprop-2-enamide]	–	99.1 nM	41 nM	310 nM	162 nM	126 nM	–	–	–
CN(c1ccc(-c2ccc(-c3ccn(C)c(=O)c3)cc2O)nn1)[C@H]1C[C@]2(C)CCC[C@](C)(C1)N2 [SMSM 70814, 4-[3-hydroxy-4-(6-{methyl[(1R,3S,5S)-1,5-dimethyl-9-azabicyclo[3.3.1]nonan-3-yl]amino}pyridazin-3-yl)phenyl]-1-methyl-1,2-dihydropyridin-2-one]	–	102 nM	89.2 nM	538 nM	110 nM	–	–	–	–
CN(c1ccc(-c2cc(F)c(-c3ccn(C)c(=O)c3)cc2O)nn1)[C@H]1C[C@]2(C)CCC[C@](C)(C1)N2 [SMSM 70815, 4-[2-fluoro-5-hydroxy-4-(6-{methyl[(1R,3S,5S)-1,5-dimethyl-9-azabicyclo[3.3.1]nonan-3-yl]amino}pyridazin-3-yl)phenyl]-1-methyl-1,2-dihydropyridin-2-one]	–	105 nM	59.8 nM	423 nM	116 nM	238 nM	–	–	–
CN(c1ccc(-c2cc(F)c(-c3cc(=O)n(C)cn3)cc2O)nn1)[C@H]1C[C@]2(C)CC[C@](C)(C1)N2 [SMSM 70816, 6-(4-(6-(((1R,3S,5S)-1,5-dimethyl-8-azabicyclo[3.2.1]octan-3-yl)(methyl)amino)pyridazin-3-yl)-2-fluoro-5-hydroxyphenyl)-3-methylpyrimidin-4(3H)-one]	–	215 nM	171 nM	737 nM	225 nM	634 nM	–	–	–
COc1cc(-c2ccc(-c3ccc(N(C)[C@H]4C[C@]5(C)CC[C@](C)(C4)N5)nn3)c(O)c2)ncn1 [SMSM 70817, 2-(6-{[(1R,3S,5S)-1,5-dimethyl-8-azabicyclo[3.2.1]octan-3-yl](methyl)amino}pyridazin-3-yl)-5-(6-methoxypyrimidin-4-yl)phenol]	–	707 nM	941 nM	2910 nM	930 nM	1160 nM	–	–	–
CN(c1ccc(-c2cc(F)c(-c3ccn(CF)c(=O)c3)cc2O)nn1)[C@H]1C[C@]2(C)CCC[C@](C)(C1)N2 [SMSM 70819, 4-[2-fluoro-5-hydroxy-4-(6-{methyl[(1R,3S,5S)-1,5-dimethyl-9-azabicyclo[3.3.1]nonan-3-yl]amino}pyridazin-3-yl)phenyl]-1-(fluoromethyl)-1,2-dihydropyridin-2-one]	–	93.9 nM	88 nM	293 nM	94.7 nM	92.9 nM	–	–	–
COc1cc(-c2ccc(-c3ccc(N(C)[C@H]4C[C@]5(C)CCC[C@](C)(C4)N5)nn3)c(O)c2)cnn1 [SMSM 70820, 5-(6-methoxypyridazin-4-yl)-2-(6-{methyl[(1R,3S,5S)-1,5-dimethyl-9-azabicyclo[3.3.1]nonan-3-yl]amino}pyridazin-3-yl)phenol]	–	142 nM	111 nM	627 nM	166 nM	530 nM	–	–	–
CNC(=O)/C=C/c1cc(O)c(-c2ccc(N(C3CC3)[C@H]3C[C@]4(C)CC[C@](C)(C3)N4)nn2)cc1F [SMSM 70823, (E)-3-(4-(6-(cyclopropyl((1R,3S,5S)-1,5-dimethyl-8-azabicyclo[3.2.1]octan-3-yl)amino)pyridazin-3-yl)-2-fluoro-5-hydroxyphenyl)-N-methylacrylamide]	–	328 nM	170 nM	898 nM	463 nM	344 nM	–	–	–
CNC(=O)c1ccc2cc(-c3ccc(N(C)[C@H]4C[C@]5(C)CCC[C@](C)(C4)N5)nn3)c(O)cc2n1 [SMSM 70824, 7-hydroxy-N-methyl-6-(6-{methyl[(1R,3S,5S)-1,5-dimethyl-9-azabicyclo[3.3.1]nonan-3-yl]amino}pyridazin-3-yl)quinoline-2-carboxamide]	–	27.6 nM	9.3 nM	60.2 nM	54 nM	46.1 nM	–	–	–
CNC(=O)/C=C/c1cc(O)c(-c2ccc(N(C3CC3)[C@H]3C[C@]4(C)CCC[C@](C)(C3)N4)nn2)cc1F [SMSM 70826, (2E)-3-[4-(6-{cyclopropyl[(1R,3S,5S)-1,5-dimethyl-9-azabicyclo[3.3.1]nonan-3-yl]amino}pyridazin-3-yl)-2-fluoro-5-hydroxyphenyl]-N-methylprop-2-enamide]	–	177 nM	257 nM	887 nM	337 nM	304 nM	–	–	–
Oc1cc(-c2cn[nH]c2)ccc1-c1ccc(O[C@@H]2C[C@H]3COC[C@@H](C2)N3)nn1 [compound 159, 2-(6-(((1R,5S,7r)-3-oxa-9-azabicyclo[3.3.1]nonan-7-yl)oxy)pyridazin-3-yl)-5-(1H-pyrazol-4-yl)phenol]	–	–	–	–	–	–	501 to 1000 nM	251 to 500 nM	501 to 1000 nM
Cc1cn(-c2ccc(-c3ccc(N(C)[C@H]4C[C@]5(C)CC[C@](C)(C4)N5)nn3)c(O)c2)cn1 [compound 177, 2-(6-(((1R,3S,5S)-1,5-dimethyl-8-azabicyclo[3.2.1]octan-3-yl)(methyl)amino)pyridazin-3-yl)-5-(4-methyl-1H-imidazol-1-yl)phenol]	–	–	–	–	–	–	10 to 100 nM	< 10 nM	< 10 nM
Oc1cc(-c2c[nH]nn2)ccc1-c1ccc(O[C@@H]2C[C@H]3CC[C@@H](C2)N3)nn1 [compound 253, 2-(6-(((1R,3S,5S)-8-azabicyclo[3.2.1]octan-3-yl)oxy)pyridazin-3-yl)-5-(1H-1,2,3-triazol-4-yl)phenol]	–	–	–	–	–	–	501 to 1000 nM	251 to 500 nM	251 to 500 nM
Oc1cc(-c2cn[nH]c2)c(F)cc1-c1ccc(O[C@@H]2C[C@H]3CCC[C@@H](C2)N3)nn1 [compound 278, 2-(6-(((1R,3S,5S)-9-azabicyclo[3.3.1]nonan-3-yl)oxy)pyridazin-3-yl)-4-fluoro-5-(1H-pyrazol-4-yl)phenol]	–	–	–	–	–	–	10 to 100 nM	–	–
CN(C)C(=O)c1cc2cc(O)c(-c3ccc(N(C)[C@@H]4C[C@H]5CCC[C@@H](C4)N5)nn3)cc2o1 [compound 295, 6-(6-(((1R,3S,5S)-9-azabicyclo[3.3.1]nonan-3-yl)(methyl)amino)pyridazin-3-yl)-5-hydroxy-N,N-dimethylbenzofuran-2-carboxamide]	–	–	–	–	–	–	251 to 500 nM	–	–
CN(C)C(=O)c1cc2cc(-c3ccc(N(C)[C@@H]4C[C@H]5CCC[C@@H](C4)N5)nn3)c(O)cc2o1 [compound 298, 5-(6-(((1R,3S,5S)-9-azabicyclo[3.3.1]nonan-3-yl)(methyl)amino)pyridazin-3-yl)-6-hydroxy-N,N-dimethylbenzofuran-2-carboxamide]	–	–	–	–	–	–	10 to 100 nM	–	–
CN(c1ccc(-c2ccc(-c3cnn(C(F)F)c3)cc2O)nn1)[C@@H]1C[C@H]2CCC[C@@H](C1)N2 [compound 301, 2-(6-(((1R,3S,5S)-9-azabicyclo[3.3.1]nonan-3-yl)(methyl)amino)pyridazin-3-yl)-5-(l-(difluoromethy)-1H-pyrazol-4-yl)phenol]	–	–	–	–	–	–	10 to 100 nM	–	–
